Laboratory results taken from patent US20240025906A1 (NEURON23, INC., priority 2022, published 2024).

What was measured:
TYK2 JH2 = biological target: T1, TYK2 JH2 (Homo sapiens, UniProt P29597); test: TYK2 JH2 binding assay (KINOMEscan KdELECT competitive binding); settings: TYK2 JH2 domain, KINOMEscan KdELECT (Assay A); read-out: Biochemical TYK2_JH2_Kd
T1 construct: purchased DiscoverX (KINOMEscan KdELECT service); host or cells: E. coli BL21-derived (T7 phage display) or HEK-293
Procedure, shortened: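 Competition binding, KdELECT format. Kinase (phage-tagged, E. coli BL21-derived host; or HEK-293, DNA-tagged) + ligand-coated streptavidin beads + cpd, 1 h RT, final DMSO 0.9%. Wash, elute 30 min with 0.5 μM non-biotinylated ligand; qPCR readout. Kd: 11-pt, 3-fold series.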

[1] = test system: JAK1/TYK2 pSTAT5 (Tyr694/699) in THP-1 cell line; test: IFNa-stimulated JAK1/TYK2 pSTAT5 (Tyr694/699) inhibition cellular assay, AlphaLISA; assay type: cell-based; settings: Homo sapiens; THP-1 cells, IFNa-stimulated, AlphaLISA (Assay B); read-out: Cellular THP1_IFNa-pSTATS_IC50
Procedure, shortened: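 pSTAT5 (Tyr694/699) in lysates quantified by AlphaLISA (615 nm) after 30 min IFNa stimulation (100 ng/mL stock) of THP-1 cells. The cells, 2e4 per well in HBSS, had first been exposed 1 h at 37° C. to eight 6-fold compound dilutions, 10000 down to 0.04 nM final. IC50 fitted by 4PL regression, bottom 0, Hill slope −1.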

T1 sequence (P29597 589-875 limits assumed): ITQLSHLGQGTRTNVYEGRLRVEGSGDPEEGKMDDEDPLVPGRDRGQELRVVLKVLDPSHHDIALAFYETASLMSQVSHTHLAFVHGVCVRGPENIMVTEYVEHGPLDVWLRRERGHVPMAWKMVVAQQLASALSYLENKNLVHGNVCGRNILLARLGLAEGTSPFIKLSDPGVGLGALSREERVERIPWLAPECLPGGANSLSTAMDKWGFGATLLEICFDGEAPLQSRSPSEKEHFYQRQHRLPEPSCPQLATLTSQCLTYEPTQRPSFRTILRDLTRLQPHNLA

Compound	Kd (TYK2 JH2) [nM]	IC50 [1] [nM]
CNc1ncc(CO)c2cc(NC(=O)C3CC3)ncc12 [Example 44, N-(5-(hydroxymethyl)-8-(methylamino)-2,7-naphthyridin-3-yl)cyclopropanecarboxamide]	≤ 100	> 500
CNc1ncc(COc2ccccc2)c2cc(NC(=O)C3CC3)ncc12 [Example 45, N-(8-(methylamino)-5-(phenoxymethyl)-2,7-naphthyridin-3-yl)cyclopropanecarboxamide]	≤ 100	> 500
CNc1ncc(-c2ccc(S(C)(=O)=O)cc2)c2cc(NC(=O)C3CC3)ncc12 [Example 46, N-(8-(methylamino)-5-(4-(methylsulfonyl)phenyl)-2,7-naphthyridin-3-yl)cyclopropanecarboxamide]	≤ 100	> 500
CNc1ncc(-c2ccccc2SC)c2cc(NC(=O)C3CC3)ncc12 [Example 47, N-(8-(methylamino)-5-(2-(methylthio)phenyl)-2,7-naphthyridin-3-yl)cyclopropanecarboxamide]	100 to 1000	> 500
CNc1ncc(-c2ccccc2S(C)(=O)=O)c2cc(NC(=O)C3CC3)ncc12 [Example 48, N-(8-(methylamino)-5-(2-(methylsulfonyl)phenyl)-2,7-naphthyridin-3-yl)cyclopropanecarboxamide]	1000 to 10000	> 500
CNc1ncc(-c2cccc(-c3ncn(C)n3)c2OC)c2cc(NC(=O)C3CC3)ncc12 [Example 49, N-(5-(2-methoxy-3-(1-methyl-1H-1,2,4-triazol-3-yl)phenyl)-8-(methylamino)-2,7-naphthyridin-3-yl)cyclopropanecarboxamide]	≤ 100	> 500
CNc1ncc(-c2ccncn2)c2cc(NC(=O)C3CC3)ncc12 [Example 50, N-(8-(methylamino)-5-(pyrimidin-4-yl)-2,7-naphthyridin-3-yl)cyclopropanecarboxamide]	≤ 100	> 500
CNc1ncc(-c2ccnn2C2CCCCO2)c2cc(NC(=O)C3CC3)ncc12 (stereo not shown) [Example 51, N-(8-(methylamino)-5-(1-(tetrahydro-2H-pyran-2-yl)-1H-pyrazol-5-yl)-2,7-naphthyridin-3-yl)cyclopropanecarboxamide]	1000 to 10000	> 500
CNc1ncc(-c2ccn[nH]2)c2cc(NC(=O)C3CC3)ncc12 [Example 52, N-(8-(methylamino)-5-(1H-pyrazol-5-yl)-2,7-naphthyridin-3-yl)cyclopropanecarboxamide]	≤ 100	> 500
CNc1ncc(-c2cccc(-c3ncn(C)n3)c2)c2cc(NC(=O)C3CC3)ncc12 [Example 53, N-(5-(3-(1-methyl-1H-1,2,4-triazol-3-yl)phenyl)-8-(methylamino)-2,7-naphthyridin-3-yl)cyclopropanecarboxamide]	≤ 100	> 500
CNc1ncc(-c2cccc(-c3ncnn3C)c2)c2cc(NC(=O)C3CC3)ncc12 [Example 54, N-(5-(3-(1-methyl-1H-1,2,4-triazol-5-yl)phenyl)-8-(methylamino)-2,7-naphthyridin-3-yl)cyclopropanecarboxamide]	≤ 100	> 500
CNc1ncc(N2CCCC2)c2cc(NC(=O)C3CC3)ncc12 [Example 55, N-(8-(methylamino)-5-(pyrrolidin-1-yl)-2,7-naphthyridin-3-yl)cyclopropanecarboxamide]	≤ 100	> 500
CNc1ncc(N2CCCCC2)c2cc(NC(=O)C3CC3)ncc12 [Example 56, N-(8-(methylamino)-5-(piperidin-1-yl)-2,7-naphthyridin-3-yl)cyclopropanecarboxamide]	≤ 100	> 500
CNc1ncc(-n2cccn2)c2cc(NC(=O)C3CC3)ncc12 [Example 57, N-(8-(methylamino)-5-(1H-pyrazol-1-yl)-2,7-naphthyridin-3-yl)cyclopropanecarboxamide]	≤ 100	> 500
CNc1ncc(-c2nccs2)c2cc(NC(=O)C3CC3)ncc12 [Example 63, N-(8-(methylamino)-5-(thiazol-2-yl)-2,7-naphthyridin-3-yl)cyclopropanecarboxamide]	≤ 100	> 500
CNc1ncc(-c2ccn(CC(F)(F)F)n2)c2cc(NC(=O)C3CC3)ncc12 [Example 64, N-(8-(methylamino)-5-(1-(2,2,2-trifluoroethyl)-1H-pyrazol-3-yl)-2,7-naphthyridin-3-yl)cyclopropanecarboxamide]	≤ 100	≤ 500
CNc1ncc(-c2cscn2)c2cc(NC(=O)C3CC3)ncc12 [Example 65, N-(8-(methylamino)-5-(thiazol-4-yl)-2,7-naphthyridin-3-yl)cyclopropanecarboxamide]	≤ 100	> 500
CNc1ncc(-c2ncc(C)s2)c2cc(NC(=O)C3CC3)ncc12 [Example 66, N-(8-(methylamino)-5-(5-methylthiazol-2-yl)-2,7-naphthyridin-3-yl)cyclopropanecarboxamide]	≤ 100	> 500

Compound	Kd (TYK2 JH2) [nM]	IC50 [1] [nM]
CNc1ncc(C2=CCOCC2)c2cc(NC(=O)C3CC3)ncc12 [Example 67, N-(5-(3,6-dihydro-2H-pyran-4-yl)-8-(methylamino)-2,7-naphthyridin-3-yl)cyclopropanecarboxamide]	≤ 100	> 500
CNc1ncc(C2CCOCC2)c2cc(NC(=O)C3CC3)ncc12 [Example 68, N-(8-(methylamino)-5-(tetrahydro-2H-pyran-4-yl)-2,7-naphthyridin-3-yl)cyclopropanecarboxamide]	≤ 100	> 500
CNc1ncc(C2=CCCCC2)c2cc(NC(=O)C3CC3)ncc12 [Example 69, N-(5-(cyclohex-1-en-1-yl)-8-(methylamino)-2,7-naphthyridin-3-yl)cyclopropanecarboxamide]	≤ 100	> 500
CNc1ncc(C2CCCCC2)c2cc(NC(=O)C3CC3)ncc12 [Example 70, N-(5-cyclohexyl-8-(methylamino)-2,7-naphthyridin-3-yl)cyclopropanecarboxamide]	≤ 100	> 500
C=Cc1cnc(NC)c2cnc(NC(=O)C3CC3)cc12 [Example 71, N-(8-(methylamino)-5-vinyl-2,7-naphthyridin-3-yl)cyclopropanecarboxamide]	≤ 100	> 500
CCc1cnc(NC)c2cnc(NC(=O)C3CC3)cc12 [Example 72, N-(5-ethyl-8-(methylamino)-2,7-naphthyridin-3-yl)cyclopropanecarboxamide]	≤ 100	> 500
C=C(C)c1cnc(NC)c2cnc(NC(=O)C3CC3)cc12 [Example 73, N-(8-(methylamino)-5-(prop-1-en-2-yl)-2,7-naphthyridin-3-yl)cyclopropanecarboxamide]	≤ 100	> 500
CNc1ncc(C(C)C)c2cc(NC(=O)C3CC3)ncc12 [Example 74, N-(5-isopropyl-8-(methylamino)-2,7-naphthyridin-3-yl)cyclopropanecarboxamide]	≤ 100	> 500
CNc1ncc(C2=CCOC2)c2cc(NC(=O)C3CC3)ncc12 [Example 75, N-(5-(2,5-dihydrofuran-3-yl)-8-(methylamino)-2,7-naphthyridin-3-yl)cyclopropanecarboxamide]	≤ 100	> 500
CNc1ncc(C2CCOC2)c2cc(NC(=O)C3CC3)ncc12 (stereo not shown) [Example 76, N-(8-(methylamino)-5-(tetrahydrofuran-3-yl)-2,7-naphthyridin-3-yl)cyclopropanecarboxamide]	≤ 100	> 500
CNc1ncc(C2=CCCOC2)c2cc(NC(=O)C3CC3)ncc12 [Example 77, N-(5-(5,6-dihydro-2H-pyran-3-yl)-8-(methylamino)-2,7-naphthyridin-3-yl)cyclopropanecarboxamide]	≤ 100	> 500
CNc1ncc(C2CCCOC2)c2cc(NC(=O)C3CC3)ncc12 (stereo not shown) [Example 78, N-(8-(methylamino)-5-(tetrahydro-2H-pyran-3-yl)-2,7-naphthyridin-3-yl)cyclopropanecarboxamide]	≤ 100	> 500
CNc1ncc(/C=C2\CCOC2)c2cc(NC(=O)C3CC3)ncc12 [Example 79, (E)-N-(5-((dihydrofuran-3(2H)-ylidene)methyl)-8-(methylamino)-2,7-naphthyridin-3-yl)cyclopropanecarboxamide]	≤ 100	> 500
CNc1ncc(CC2CCOC2)c2cc(NC(=O)C3CC3)ncc12 (stereo not shown) [Example 80, N-(8-(methylamino)-5-((tetrahydrofuran-3-yl)methyl)-2,7-naphthyridin-3-yl)cyclopropanecarboxamide]	≤ 100	> 500
CNc1ncc(-c2csc(C)n2)c2cc(NC(=O)C3CC3)ncc12 [Example 81, N-(8-(methylamino)-5-(2-methylthiazol-4-yl)-2,7-naphthyridin-3-yl)cyclopropanecarboxamide]	≤ 100	> 500
CNc1ncc(-c2ccsn2)c2cc(NC(=O)C3CC3)ncc12 [Example 82, N-(5-(isothiazol-3-yl)-8-(methylamino)-2,7-naphthyridin-3-yl)cyclopropanecarboxamide]	≤ 100	> 500
CNc1ncc(-c2cnsc2)c2cc(NC(=O)C3CC3)ncc12 [Example 83, N-(5-(isothiazol-4-yl)-8-(methylamino)-2,7-naphthyridin-3-yl)cyclopropanecarboxamide]	≤ 100	> 500
